Experimental data as given in paper PMC11483378, “Triazole-Based Thiamine Analogues as Inhibitors of Thiamine Pyrophosphate-Dependent Enzymes: 1,3-Dicarboxylate for Metal Binding” (ACS Omega, 2024).
Where two headings read alike, the source gives them in different places.

What was measured:
[1] = target: E. coli OGDH E1 (Escherichia coli, UniProt P0AFG3); test: E. coli OGDH E1 inhibitory activity assay (DCPIP reduction); type: biochemical
Protocol: E. coli OGDH E1 was from material donated by R. Frank. E. coli OGDH E1 activity was determined by monitoring DCPIP reduction at 600 nm using a microplate reader (CLARIOstar) and conducted as described[5] with some modifications. […] The reaction buffer (50 mM KH2PO4 and 2 mM MgCl2, pH 7) contained TPP at specified concentrations, 0.5 mM DCPIP, and 6.7 mg/mL E. coli OGDH E1. The reaction mixture was preincubated at 37 °C with the inhibitor for 60 min, and then the reaction was initiated by adding α-ketoglutarate to a final concentration of 10 mM. To determine the IC50, the TPP concentration was set at 60 μM with varying inhibitor concentrations. Specific activity was calculated using the molar extinction coefficient of DCPIP, 21 mM^–1 cm^–1.[28] The IC50 values were calculated from nonlinear regression curve fitting using GraphPad Prism.
Enzyme inhibitory activity assays – methods and results (Figures S1-4) […]
The compound […]
E. coli OGDH E1 inhibitory activity assay. E. coli OGDH E1 was from material donated by R. Frank. E. coli OGDH E1 activity was determined by monitoring DCPIP reduction at 600 nm using a microplate reader (CLARIOstar) and conducted as described3 with some modifications. The percentage inhibition of compounds against E. coli OGDH E1 was assayed at 250 μM. The reaction buffer (50 mM KH 2PO4 and 2 mM MgCl2, pH 7) contained TPP at specified concentrations, 0.5 mM DCPIP, and 6.7 mg/ml E. coli OGDH E1. The reaction mixture was preincubated at 37 °C with the inhibitor for 60 min, then reaction was initiated by adding α-ketoglutarate to a final concentration of 10 mM. To determine the IC50, TPP concentration was set at 60 µM with varying inhibitor concentrations. Specific activity was […]

[2] = target: T1, Porcine PDH E1 (Sus scrofa, UniProt P29804); test: Porcine PDH E1 inhibitory activity assay (DCPIP reduction); type: biochemical; conditions: for % Inhibition (5:1): [Compound] = 250 μM, [TPP] = 50 μM; for inhibition at 250 µM: [Compound] = [TPP] = 250 μM, read-out: % Inhibition (1:1); for vs TPP: affinity of the compound relative to that of TPP (= [TPP]/IC50) / IC50: [TPP] = 60 µM; for IC50: read-out: IC50 (μM ± SEM); for Ki: calculated from KM(TPP) 0.05 µM using [TPP]/IC50 = KM(TPP)/KI
T1 sequence (P29804 31-390): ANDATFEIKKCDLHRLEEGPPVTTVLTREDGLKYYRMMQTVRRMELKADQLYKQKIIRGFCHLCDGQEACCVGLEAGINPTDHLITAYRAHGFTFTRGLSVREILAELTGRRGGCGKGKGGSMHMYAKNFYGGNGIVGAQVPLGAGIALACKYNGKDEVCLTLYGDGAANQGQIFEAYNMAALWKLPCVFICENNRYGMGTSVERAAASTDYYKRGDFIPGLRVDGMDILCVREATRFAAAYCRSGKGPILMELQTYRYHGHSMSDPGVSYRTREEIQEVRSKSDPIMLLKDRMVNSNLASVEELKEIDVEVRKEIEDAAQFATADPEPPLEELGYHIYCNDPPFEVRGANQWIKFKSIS
Protocol: Porcine PDH E1 was purchased from Sigma. Porcine PDH E1 activity was determined by monitoring 2,6-dichlorophenolindophenol (DCPIP) reduction at 600 nm using a microplate reader (CLARIOstar) and conducted as described[5] with some modifications. […] The reaction buffer (50 mM KH2PO4 and 1 mM MgCl2, pH 7) contained thiamine pyrophosphate (TPP) at specified concentrations, 0.25 mM DCPIP, and 2 mg/mL porcine PDH E1. The reaction mixture was preincubated at 37 °C with the inhibitor for 30 min, and then the reaction was initiated by adding pyruvate to a final concentration of 50 mM. To determine the half-maximal inhibitory concentration (IC50), the TPP concentration was set at 60 μM with varying inhibitor concentrations. Specific activity was calculated using the molar extinction coefficient of DCPIP, 21 mM^–1 cm^–1.[28] The IC50 values were calculated from nonlinear regression curve fitting using GraphPad Prism.
Porcine PDH E1 inhibitory activity assay. Porcine PDH E1 was purchased from Sigma. Porcine PDH E1 activity was determined by monitoring 2,6-dichlorophenolindophenol (DCPIP) reduction at 600 nm using a microplate reader (CLARIOstar) and conducted as described3 with some modifications. The […]
buffer (50 mM KH2PO4 and 1 mM MgCl2, pH 7) contained thiamine pyrophosphate (TPP) at specified concentrations, 0.25 mM 2,6-dichlorophenolindophenol (DCPIP), and 2 mg/mL porcine PDH E1. The reaction mixture was preincubated at 37 °C with the inhibitor for 30 min, then reaction was initiated by adding pyruvate to a final concentration of 50 mM. To determine the half-maximal inhibitory concentration (IC50), TPP concentration was set at 60 µM with varying inhibitor concentrations. […]
values were calculated from non-linear regression curve fitting using GraphPad Prism. […]

[3] = PAMPA (parallel artificial membrane permeability assay); type: in vitro ADME; conditions: for Papp at 10 h, 500 µM: PAMPA, read-out: PAMPA log Pe (converted); for Papp at 10 h, 500 µM / Fa (fraction absorbed): compounds at 500 µM, 5% DMSO in PBS pH 7.4, 10 hours, room temperature
Protocol: PAMPA – methods and results (Table S2)
PAMPA was carried out in 96-well microtiter filter plates obtained from Millipore as described1 with some modifications. Each well of the filter plate was impregnated with 15 µL of 5% hexadecane dissolved in hexane (i.e. total amount of hexadecane: 0.75 µL) for at least 10 minutes in ventilated environment to allow for complete evaporation of hexane. Donor compartments were filled with 200 µL compound-containing donor solutions of compounds dissolved in 5% DMSO, phosphate buffered saline PBS) and connected to acceptor plate prefilled with buffer (5% DMSO in PBS, pH 7.4). The resulting sandwich was incubated at room temperature under gentle shaking and wrapped in wet paper towels to avoid evaporation. After 10 hours, the sandwich was disassembled and the solutions in the acceptor and donor were transferred to a disposable UV-transparent plate. UV absorption was measured at wavelengths between 220 and 340 nm using a microplate reader (CLARIOstar).
Compounds were tested at 500 µM. Calibration to determine concentration of compounds were performed with varying compound concentrations in buffer (5% DMSO in PBS).
The artificial membrane permeability is expressed as fraction absorbed (Fa%)2 or log Pe (log of the effective permeability)1. LogD values at pH 7.4 were calculated using MarvinSketch.
Fa% = 100 ∙CA ∙VA / CD0 ∙ VD where: CA = final drug concentration in the acceptor well (µM)
VA = volume in the acceptor well (cm3)
CD0 = Initial drug concentration in the donor well (µM)
VD = volume in the donor well (cm3) log P (cm/s) = log -ln 1-CA/Cequilibrium
S = surface area (cm2), typically 0.268 cm2
Cequilibrium = theoretical equilibrium concentration = [CD ∙VD+CA ∙VA] / [VD+VA] where: CD = final drug concentration in the donor well (µM)
CA = final drug concentration in the acceptor well (µM)
Table S2. Permeability data.
Compounds Fa (%) PAMPA log Pe (cm/s) cLogD (pH = 7.4)

[4] = [Compound] = 250 μM, [TPP] = 50 μM
[5] = [Compound] = [TPP] = 250 μM; read-out: % Inhibition (1:1)
[6] = calculated from KM(TPP) 3 µM using [TPP]/IC50 = KM(TPP)/KI
[7] = read-out: IC50 (μM ± SEM); [TPP] = 60 µM
[8] = [TPP] = 60 µM; read-out: IC50 (μM ± SEM)
[9] = calculated from KM(TPP) 3 µM using [TPP]/IC50 = KM(TPP)/KI; read-out: KI

E. coli OGDH E1, sequence (P0AFG3 whole entry): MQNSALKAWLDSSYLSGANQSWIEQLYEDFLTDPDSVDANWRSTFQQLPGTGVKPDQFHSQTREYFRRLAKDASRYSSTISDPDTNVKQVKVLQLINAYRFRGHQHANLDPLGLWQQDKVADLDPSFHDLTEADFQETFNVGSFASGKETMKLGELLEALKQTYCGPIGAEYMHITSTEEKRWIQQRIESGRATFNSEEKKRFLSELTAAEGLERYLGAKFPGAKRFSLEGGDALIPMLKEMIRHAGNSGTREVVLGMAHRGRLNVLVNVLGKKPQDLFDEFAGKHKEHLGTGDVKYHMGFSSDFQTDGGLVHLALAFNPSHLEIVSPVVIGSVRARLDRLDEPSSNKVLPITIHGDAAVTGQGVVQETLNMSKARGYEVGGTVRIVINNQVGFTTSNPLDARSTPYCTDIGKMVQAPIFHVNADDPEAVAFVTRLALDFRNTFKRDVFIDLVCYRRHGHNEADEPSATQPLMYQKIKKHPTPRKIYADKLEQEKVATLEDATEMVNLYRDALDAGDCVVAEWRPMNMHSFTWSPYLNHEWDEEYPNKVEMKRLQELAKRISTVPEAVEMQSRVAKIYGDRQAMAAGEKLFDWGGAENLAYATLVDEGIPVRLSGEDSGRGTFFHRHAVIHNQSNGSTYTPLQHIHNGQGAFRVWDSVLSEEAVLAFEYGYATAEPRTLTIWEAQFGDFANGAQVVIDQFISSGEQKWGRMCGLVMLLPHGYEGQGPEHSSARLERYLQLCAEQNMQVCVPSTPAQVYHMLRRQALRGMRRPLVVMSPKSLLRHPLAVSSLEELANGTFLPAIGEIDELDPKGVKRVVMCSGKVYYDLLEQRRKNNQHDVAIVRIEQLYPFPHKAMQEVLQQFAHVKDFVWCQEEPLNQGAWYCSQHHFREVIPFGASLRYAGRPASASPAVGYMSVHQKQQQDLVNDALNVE

SMILES	% Inhibition (5:1) [1, 4] [%]	inhibition at 250 µM [1, 5] [%]	vs TPP: affinity of the compound relative to that of TPP (= [TPP]/IC50) ([1]; [TPP] = 60 µM)	Ki [1, 6] [µM]	IC50 [1, 7] [µM]	% Inhibition (5:1) [2] [%]	inhibition at 250 µM [2] [%]	vs TPP: affinity of the compound relative to that of TPP (= [TPP]/IC50) [2]	IC50 [2] [µM]	Ki [2] [µM]	membrane permeability in PAMPA (in words) [3]	Papp at 10 h, 500 µM [3] [×10⁻⁶ cm/s]	Fa (fraction absorbed) [3] [%]	IC50 [1, 8] [µM]	Ki [1, 9] [µM]
Cc1ncc(Cn2cc(CCCCC(=O)[O-])nn2)c(N)n1.[K+] [16b]	54 ± 4	22 ± 5	0.22	14	273 ± 44	77 ± 3	40 ± 3	0.65	92 ± 13	0.077	impermeable	0.398	2		
COC(=O)C(CCCc1cn(Cc2cnc(C)nc2N)nn1)C(=O)OC [13b]	54 ± 3	23 ± 4	0.24			81 ± 4	48 ± 3	0.88	68 ± 9	0.057		6.31	42	251 ± 37	13
COC(=O)CCCc1cn(Cc2cnc(C)nc2N)nn1 [15a]	38 ± 3	< 20	0.15			65 ± 4	25 ± 4	0.36	167 ± 35	0.14	membrane-permeable	5.01	38	407 ± 73	20
COC(=O)C(CCc1cn(Cc2cnc(C)nc2N)nn1)C(=O)OC [13a]	40 ± 3	< 20	0.15			71 ± 3	36 ± 2	0.53	114 ± 15	0.095	membrane-permeable	6.31	39	394 ± 65	20
COC(=O)CCCCc1cn(Cc2cnc(C)nc2N)nn1 [15b]	42 ± 4	< 20	0.17			71 ± 4	31 ± 3	0.48	126 ± 28	0.11	membrane-permeable	6.31	44	353 ± 29	18
Cc1ncc(Cn2cc(CCCC(C(=O)[O-])C(=O)[O-])nn2)c(N)n1.[K+].[K+] [14b]	83 ± 4	47 ± 3	0.90	3.4	67 ± 9	> 90	72 ± 3	2.4	25 ± 6	0.021	membrane-impermeable	0.158	1		
Cc1ncc(Cn2cc(CCC(C(=O)[O-])C(=O)[O-])nn2)c(N)n1.[K+].[K+] [14a]	76 ± 5	36 ± 4	0.57	5.3	105 ± 11	> 90	62 ± 3	1.62	37 ± 6	0.031	impermeable	0.316	2		
